Assay results reported in patent US8642621B2, “(4-phenyl-piperidin-1-yl)-[5-(1H-pyrazol-4-yl)-thiophen-3-yl]-methanone compounds and their use” (The University Of Edinburgh, priority 2009, dated 2014).
Like-named read-outs stand apart in the source and are kept apart here.

What was measured:
[1] = In vitro human liver microsomal stability assay; format: in vitro ADME; settings: human liver microsomes
Experimental: In Vitro Human Liver Microsomal Stability Assay
To predict in vivo metabolism of compounds, the stability of compounds incubated with human liver microsomes in vitro was determined. Human liver microsome preparations were stored at −80° C. and thawed on ice prior to use. The thawed microsomes were diluted to a concentration of 2 mg/mL in 50 mM sodium phosphate, pH 7.4. Reference and test compounds were prepared as 10 mM stocks in 100% DMSO and diluted to 1 mM in acetonitrile before use. Each compound was tested in triplicate as follows:
4 μL of test or reference compound was added to a well of a 24-well microplate and 0.5 mL of 4 mM NADPH added. The plate was then transferred to a shaker for 10 minutes at room temperature. 30 μL of the compound/NADPH solution was transferred to the well of a 96-well microplate and incubated at 37° C. for 5 minutes. 30 μL of human liver microsomes (pre-incubated at 37° C. for 5 minutes) was added to the well containing the compound/NADPH solution and the plate incubated for the selected period of time (typically 0 or 30 minutes). The reaction was stopped by adding 60 μL of ice cold […] trichloroacetic acid. The plate was centrifuged at 1000 rpm for 5 minutes at room temperature and the supernatant transferred to the well of a new 96-well v-bottomed microplate for mass spectrometric analysis.
Samples were analyzed by TSQ Quantum Discovery Tandem Mass Spectrometer and Surveyor Liquid Chromatogram (Thermo, Hemel-Hempstead, UK). 10 μL of each sample was injected in a mobile phase consisting of 60%:40% methanol:5 mM ammonium acetate at a flow rate of 0.5 mL/minute. The column used was a BDS hypersil, C18, 50×2.1 mm with a 5 μm particle size.
Each compound was tuned with a spray voltage of 3000 V and a capillary temperature of 300° C. and values for tube lens, CID and product ions were determined.
The peak area for each compound was measured in triplicate for the 0 and 30 minute samples and the average of each was reported. The percentage remaining after 30 minutes was calculated as the average peak area of the sample after 30 minutes divided by the average peak area at 0 minutes. The RSD was 10% or lower for each compound.

[2] = biological target: T1, human 11β-HSD1 enzyme (Homo sapiens, UniProt P28845); assay: Cellular in vitro 11β-HSD1 enzyme inhibition assay (SPA, HEK293/11β-HSD1 cells); format: cell-based
T1 construct: stably transfected with a construct containing the full-length gene coding for the human 11β-HSD1 enzyme; expressed in transfected cells; HEK293/11β-HSD1 cells)
T1 sequence (P28845 whole entry): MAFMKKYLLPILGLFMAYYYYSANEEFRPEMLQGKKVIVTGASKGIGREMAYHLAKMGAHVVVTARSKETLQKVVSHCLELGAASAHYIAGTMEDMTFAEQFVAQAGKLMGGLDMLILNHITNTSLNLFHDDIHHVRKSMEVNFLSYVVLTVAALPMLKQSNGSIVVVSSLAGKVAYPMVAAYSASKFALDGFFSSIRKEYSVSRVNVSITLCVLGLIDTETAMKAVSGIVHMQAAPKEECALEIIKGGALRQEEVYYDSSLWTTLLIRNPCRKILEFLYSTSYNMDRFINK
Experimental: Cellular In Vitro 11β-HSD1 Enzyme Inhibition Assay
Compounds were assessed by a Scintillation Proximity Assay (SPA) performed according to the following protocol:
HEK293 cells were stably transfected with a construct containing the full-length gene coding for the human 11β-HSD1 enzyme to create HEK293/11β-HSD1 cells. Cells were routinely cultured in DMEM containing 10% calf foetal serum, 1% glutamine, and 1% penicillin and streptomycin. Prior to assay, cells were plated at 2×10^4 cells/well in 96-well poly-D-Lys coated flat-bottomed microplates and incubated in 5% CO2, 95% O2 at 37° C. for 24 hours. The media in each well was removed immediately before assay.
Compounds to be tested were dissolved in DMSO at 10 mM and serially diluted into water containing 10% DMSO. Diluted compounds at a volume of 10 μL were added to wells of a 96-well V-bottomed microplate. A solution of DMEM, 1% glutamine, 1% penicillin and streptomycin, and 22 nM tritiated cortisone was prepared and 90 μL added to each well of the assay plate. This solution (100 μL/well) was transferred to the plate containing the cells. The plate was then incubated in 5% CO2, 95% O2 at 37° C. for 2 hours.
Following this incubation, 50 μL of the assay solution was transferred to each well of a 96-well scintillation microplate. A mixture consisting of anti-mouse YSi SPA beads, pre-mixed with anti-cortisol antibody in assay buffer (50 mM Tris.HCl, pH 7.0; 300 mM NaCl; 1 mM EDTA, 5% glycerol) was prepared and 50 μL added to each well of the scintillation microplate. An adhesive strip was applied to the microplate and the plate gently shaken for at least 2 hours at room temperature, and then spun briefly on a low speed centrifuge. The plate was read on a scintillation counter suitable for 96-well microplates. For the calculation of percentage inhibition, a series of wells were added to the plate that represented the assay maximum and the assay minimum: one set that contained substrate without cells (minimum) and another set that contained substrate and cells without any compound (maximum).
The calculation of median inhibitory concentration (IC50) values for the compounds was performed using GraphPad Prism® software. Dose-response curves for each compound were plotted as fractional inhibition and data fitted to the four parameter logistic equation.

[3] = biological target: T2, human 11β-HSD2 (Homo sapiens, UniProt P80365); assay: Cellular in vitro 11β-HSD2 enzyme inhibition assay (CHO cells); format: cell-based; settings: CHO cells stably transfected with human 11β-HSD2; Table 1
T2 construct: CHO cells stably transfected with the full-length gene coding for human 11β-HSD2 were used; expressed in transfected cells
T2 sequence (P80365 1-405): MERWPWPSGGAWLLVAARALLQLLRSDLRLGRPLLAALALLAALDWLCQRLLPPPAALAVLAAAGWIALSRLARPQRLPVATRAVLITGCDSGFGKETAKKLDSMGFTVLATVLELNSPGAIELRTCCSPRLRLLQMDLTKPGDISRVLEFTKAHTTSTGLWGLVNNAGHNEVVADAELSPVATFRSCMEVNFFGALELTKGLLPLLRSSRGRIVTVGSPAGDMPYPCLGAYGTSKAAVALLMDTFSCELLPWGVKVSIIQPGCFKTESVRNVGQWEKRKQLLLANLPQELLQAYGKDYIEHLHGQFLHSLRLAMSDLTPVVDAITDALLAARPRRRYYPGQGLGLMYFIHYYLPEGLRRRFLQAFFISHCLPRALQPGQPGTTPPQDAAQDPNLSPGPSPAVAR
Experimental: Cellular In Vitro 11β-HSD2 Enzyme Inhibition Assay
Assays were carried out in 96-well microplates containing 1×10^5 cells/well. Controls and compounds were plated as above, so that the final DMSO concentration in each well was 1%. To initiate the assay, 90 μL of a solution of HAMS F-12 medium containing 1% glutamine, 1% penicillin and streptomycin, and 22 nM tritiated cortisol was added to each well of the assay plate. The plate was then incubated in 5% CO2, 95% O2 at 37° C. for 16 hours.
The assay solutions were transferred to glass tubes and 20 μL ethyl acetate added to each tube. Each tube was vortexed thoroughly and the upper layer containing the tritiated steroid transferred to a fresh glass tube. The solvent was evaporated by placing the tubes in a heating block at 65° C. under a stream of Nitrogen gas. 20 μL ethanol was added to each of the dried samples and vortexed briefly. Each sample was applied to a silica TLC plate and the plate dried. The plate was placed vertically in a glass tank containing 92% chloroform:8% ethanol and the solvent allowed to rise up the plate. The plate was dried, placed in an imaging cassette, and overlayed with a tritium imaging plate for 1-2 days. The amount of enzyme inhibition in each sample was determined by measuring the intensity of the substrate and product spots using a phosphoimager.
IC50 values for inhibitors were determined as described for 11β-HSD1.

[4] = read-out: IC50 for 11β-HSD1 (HEK293)
[5] = HEK293 cells stably transfected with human 11β-HSD1, Table 1, read-out: IC50 for 11β-HSD1 (HEK293)

Row | Structure (SMILES) | IC50 [2, 4] [nM] | also measured
1 | N#Cc1ccccc1C1CCN(C(=O)c2csc(-c3cn[nH]c3)c2)CC1 [BB-04] | ≤ 500 | % Parent Remaining at 30 min [1]: ++ (31-60% ++)
2 | O=C(c1csc(-c2cn[nH]c2)c1)N1CCC(c2ccc(F)cc2F)CC1 [BB-10] | 500 to 1000 | 
3 | O=C(c1csc(-c2cn[nH]c2)c1)N1CCC(c2ccccc2CO)CC1 [BB-14] | ≤ 500 | 
4 | O=C(c1csc(-c2cn[nH]c2)c1)N1CCC(O)(c2cc(Cl)ccc2Cl)CC1 [AA-31] | ≤ 500 | 
5 | O=C(c1csc(-c2cn[nH]c2)c1)N1CCC(O)(c2ccc(F)cc2Cl)CC1 [AA-12] | ≤ 500 | IC50 [3]: > 10000 nM; IC50 [2, 5]: 99 nM
6 | COc1ccccc1C1(O)CC2CCC(C1)N2C(=O)c1csc(-c2cn[nH]c2)c1 (stereo not shown) [AA-25] | ≤ 500 | 
7 | O=C(c1csc(-c2cn[nH]c2)c1)N1CCC(O)(c2ccc(F)cc2)CC1 [AA-05] | ≤ 500 | % Parent Remaining at 30 min [1]: +++ (61-100% +++)
8 | COC1(c2ccccc2)CCN(C(=O)c2csc(-c3cn[nH]c3)c2)CC1 [AA-15] | ≤ 500 | IC50 [3]: > 10000 nM; % Parent Remaining at 30 min [1]: ++ (31-60% ++); IC50 [2, 5]: 110 nM
9 | Cc1n[nH]cc1-c1cc(C(=O)N2CCC(O)(c3ccccc3Cl)CC2)cs1 [AA-29] | ≤ 500 | 
10 | O=C(c1csc(-c2cn[nH]c2)c1)N1CCC(O)(c2cccc(Cl)c2Cl)CC1 [AA-21] | ≤ 500 | 
11 | O=C(c1csc(-c2cn[nH]c2)c1)N1CCC(F)(c2ccc(Cl)cc2)CC1 [AA-35] | 500 to 1000 | 
12 | Cc1cccc(F)c1C1(F)CCN(C(=O)c2csc(-c3cn[nH]c3)c2)CC1 [AA-40] | ≤ 500 | 
13 | O=C(c1csc(-c2cn[nH]c2)c1)N1CCC(O)(c2ccc(Cl)c(Cl)c2)CC1 [AA-11] | ≤ 500 | 
14 | O=C(c1csc(-c2cn[nH]c2)c1)N1CCC(O)(c2ccc(Cl)cc2Cl)CC1 [AA-24] | ≤ 500 | 
15 | O=C(c1csc(-c2cn[nH]c2)c1)N1CCC(O)(c2ccccc2C(F)(F)F)CC1 [AA-14] | ≤ 500 | 
16 | O=C(c1csc(-c2cn[nH]c2)c1)N1CCC(O)(c2c(F)cccc2Cl)CC1 [AA-23] | ≤ 500 | 
17 | O=C(c1csc(-c2cn[nH]c2)c1)N1CCC(O)(c2ccc(Cl)cc2F)CC1 [AA-07] | ≤ 500 | % Parent Remaining at 30 min [1]: +++ (61-100% +++)
18 | Cc1ccccc1C1CCN(C(=O)c2csc(-c3cn[nH]c3)c2)CC1 [BB-12] | ≤ 500 | 
19 | N#CC1(c2ccccc2Cl)CCN(C(=O)c2csc(-c3cn[nH]c3)c2)CC1 [AA-41] |  | IC50 [2]: 1000 to 10000 nM
20 | O=C(c1csc(-c2cn[nH]c2)c1)N1CCC(O)(c2ccc(F)cc2F)CC1 [AA-09] | ≤ 500 | % Parent Remaining at 30 min [1]: +++ (61-100% +++)
21 | O=C(c1csc(-c2cn[nH]c2)c1)N1CCC(c2ccccc2F)CC1 [BB-07] | ≤ 500 | % Parent Remaining at 30 min [1]: + (0-30% +)
